Reference: US20130303507A1 (Novartis AG, priority 2011, published 2013)

Biological target: Cdk9/cyclinT1 (Homo sapiens, UniProt P50750)
Assay: Cdk9/cyclinT1 IMAP protocol (fluorescence polarization)
Details: IC-50, CDK9; lower limit of assay 0.0005 micromolar

Chain of Cdk9/cyclinT1 (P50750 whole entry): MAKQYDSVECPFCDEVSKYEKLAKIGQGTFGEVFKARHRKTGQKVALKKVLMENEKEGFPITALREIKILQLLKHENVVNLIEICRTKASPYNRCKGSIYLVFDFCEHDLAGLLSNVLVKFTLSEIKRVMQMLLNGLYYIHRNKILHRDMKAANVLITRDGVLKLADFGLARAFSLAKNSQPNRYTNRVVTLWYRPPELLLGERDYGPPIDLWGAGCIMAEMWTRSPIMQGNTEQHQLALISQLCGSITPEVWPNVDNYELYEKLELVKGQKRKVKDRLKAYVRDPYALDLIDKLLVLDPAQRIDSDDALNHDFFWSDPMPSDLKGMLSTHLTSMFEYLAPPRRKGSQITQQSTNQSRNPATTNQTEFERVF
Chain of Cdk9/cyclinT1 (O60563 whole entry partner): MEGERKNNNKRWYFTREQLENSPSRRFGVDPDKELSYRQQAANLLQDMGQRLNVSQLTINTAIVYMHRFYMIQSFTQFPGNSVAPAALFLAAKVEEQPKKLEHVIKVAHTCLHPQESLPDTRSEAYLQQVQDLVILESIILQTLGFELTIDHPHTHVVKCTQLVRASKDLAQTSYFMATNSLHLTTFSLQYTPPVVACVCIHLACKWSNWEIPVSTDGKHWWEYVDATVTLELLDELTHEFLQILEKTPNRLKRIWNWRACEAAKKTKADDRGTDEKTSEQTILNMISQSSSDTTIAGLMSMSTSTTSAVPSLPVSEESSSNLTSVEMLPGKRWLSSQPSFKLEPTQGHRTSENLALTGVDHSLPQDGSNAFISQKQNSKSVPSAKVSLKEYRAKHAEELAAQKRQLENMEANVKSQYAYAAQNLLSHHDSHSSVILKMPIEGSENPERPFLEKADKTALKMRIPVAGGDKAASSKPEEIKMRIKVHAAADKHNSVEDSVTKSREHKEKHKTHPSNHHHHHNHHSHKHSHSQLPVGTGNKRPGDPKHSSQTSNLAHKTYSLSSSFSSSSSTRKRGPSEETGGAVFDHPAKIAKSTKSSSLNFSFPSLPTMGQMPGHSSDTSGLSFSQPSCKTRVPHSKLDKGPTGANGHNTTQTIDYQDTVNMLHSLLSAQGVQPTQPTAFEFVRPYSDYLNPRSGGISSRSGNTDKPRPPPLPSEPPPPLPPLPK

SMILES	IC50 [nM]
COCCO[C@H]1CC[C@H](Nc2cc(-c3cccc(NCC4(C#N)CCOCC4)n3)c(Cl)cn2)CC1 [Compound 415, 4-(((5′-chloro-2′-((trans-4-(2-methoxyethoxy)cyclohexyl)amino)-[2,4′-bipyridin]-6-yl)amino)methyl)tetrahydro-2H-pyran-4-carbonitrile]	4.9
CO[C@@H]1CCN([C@H]2CC[C@H](Nc3cc(-c4cccc(NCC5(C#N)CCOCC5)n4)c(Cl)cn3)CC2)C1 [Compound 477, 4-(((5′-chloro-2′-((trans-4-((R)-3-methoxypyrrolidin-1-yl)cyclohexyl)amino)-[2,4′-bipyridin]-6-yl)amino)methyl)tetrahydro-2H-pyran-4-carbonitrile]	0.8
N#CC1(COc2cncc(-c3cc(N[C@H]4CC[C@H](N)CC4)ncc3Cl)n2)CCOCC1 [Compound 511, 4-(((6-(2-((trans-4-aminocyclohexyl)amino)-5-chloropyridin-4-yl)pyrazin-2-yl)oxy)methyl)tetrahydro-2H-pyran-4-carbonitrile]	0.6
N#CC1(CNc2cccc(-c3cc(N[C@H]4CC[C@@H](N)CC4)ncc3Cl)n2)CCOCC1 [Compound 465, 4-(((2′-((cis-4-aminocyclohexyl)amino)-5′-chloro-[2,4′-bipyridin]-6-yl)amino)methyl)tetrahydro-2H-pyran-4-carbonitrile]	1.2
N#CC1(CNc2cccc(-c3cc(N[C@@H]4CC[C@@H](NC5CCOC5)C4)ncc3Cl)n2)CCOCC1 (stereo partly drawn) [Compound 411, 4-(((5′-chloro-2′-(((1R,3R)-3-((tetrahydrofuran-3-yl)amino)cyclopentyl)amino)-[2,4′-bipyridin]-6-yl)amino)methyl)tetrahydro-2H-pyran-4-carbonitrile]	1.8
CO[C@H]1CCN([C@H]2CC[C@@H](Nc3cc(-c4cccc(NCC5(C#N)CCOCC5)n4)c(Cl)cn3)CC2)C1 [Compound 476, 4-(((5′-chloro-2′-((cis-4-((S)-3-methoxypyrrolidin-1-yl)cyclohexyl)amino)-[2,4′-bipyridin]-6-yl)amino)methyl)tetrahydro-2H-pyran-4-carbonitrile]	5.4
N#CC1(CNc2cccc(-c3cc(N[C@H]4CC[C@H](N)CC4)ncc3F)n2)CCOCC1 [Compound 479, 4-(((2′-((trans-4-aminocyclohexyl)amino)-5′-fluoro-[2,4′-bipyridin]-6-yl)amino)methyl)tetrahydro-2H-pyran-4-carbonitrile]	< 0.5
N#CC1(CNc2cccc(-c3cc(NC4CNC4)ncc3Cl)n2)CCOCC1 [Example 401]	81
COC[C@@H](C)N[C@H]1CC[C@H](Nc2cc(-c3nc(NCC4(C#N)CCOCC4)cnc3Cl)c(Cl)cn2)CC1 [Compound 506, 4-(((5-chloro-6-(5-chloro-2-((trans-4-(((R)-1-methoxypropan-2-yl)amino)cyclohexyl)amino)pyridin-4-yl)pyrazin-2-yl)amino)methyl)tetrahydro-2H-pyran-4-carbonitrile]	≤ 0.5
N#CC1(CNc2cccc(-c3cc(N[C@H]4CC[C@H](NC[C@H](O)C(F)(F)F)CC4)ncc3Cl)n2)CCOCC1 [Compound 490, 4-(((5′-chloro-2′-((trans-4-(((S)-3,3,3-trifluoro-2-hydroxypropyl)amino)cyclohexyl)amino)-[2,4′-bipyridin]-6-yl)amino)methyl)tetrahydro-2H-pyran-4-carbonitrile]	< 0.5
N#CC1(CNc2cccc(-c3cc(N[C@H]4CC[C@H](NCC5CCCO5)CC4)ncc3F)n2)CCOCC1 (stereo partly drawn) [Compound 482, 4-(((5′-fluoro-2′-((trans-4-(((tetrahydrofuran-2-yl)methyl)amino)cyclohexyl)amino)-[2,4′-bipyridin]-6-yl)amino)methyl)tetrahydro-2H-pyran-4-carbonitrile]	< 0.5
N#CC1(CNc2cccc(-c3cc(NC4CCNCC4)ncc3Cl)n2)CCOCC1 [Example 402]	4.8
COC[C@]1(O)CC[C@H](Nc2cc(-c3cccc(NCC4(C#N)CCOCC4)n3)c(Cl)cn2)CC1 [Compound 449, 4-(((5′-chloro-2′-((trans-4-hydroxy-4-(methoxymethyl)cyclohexyl)amino)-[2,4′-bipyridin]-6-yl)amino)methyl)tetrahydro-2H-pyran-4-carbonitrile]	5.5
COC[C@@H](C)N[C@H]1CC[C@H](Nc2cc(-c3cccc(NCCC#N)n3)c(Cl)cn2)CC1 [Compound 445, 3-((5′-chloro-2′-((trans-4-(((R)-1-methoxypropan-2-yl)amino)cyclohexyl)amino)-[2,4′-bipyridin]-6-yl)amino)propanenitrile]	2.1
N#CC1(CNc2cccc(-c3cc(N[C@H]4CC[C@H](NCCF)CC4)ncc3Cl)n2)CCOCC1 [Compound 424, 4-(((5′-chloro-2′-((trans-4-((2-fluoroethyl)amino)cyclohexyl)amino)-[2,4′-bipyridin]-6-yl)amino)methyl)tetrahydro-2H-pyran-4-carbonitrile]	< 0.5
COC(=O)NC[C@H]1CC[C@H](Nc2cc(-c3cccc(NCC4(C#N)CCOCC4)n3)c(Cl)cn2)CC1 [Compound 497, methyl ((trans-4-((5′-chloro-6-(((4-cyanotetrahydro-2H-pyran-4-yl)methyl)amino)-[2,4′-bipyridin]-2′-yl)amino)cyclohexyl)methyl) carbamate]	< 0.5
COCCN[C@H]1CC[C@H](Nc2cc(-c3cncc(OCC4(C#N)CCOCC4)n3)c(Cl)cn2)CC1 [Compound 510, 4-(((6-(5-chloro-2-((trans-4-((2-methoxyethyl)amino)cyclohexyl)amino)pyridin-4-yl)pyrazin-2-yl)oxy)methyl)tetrahydro-2H-pyran-4-carbonitrile]	1.3
N#CC1(CNc2cccc(-c3cc(NC4CCC(N)CC4)ncc3Cl)n2)CC1 (stereo not drawn) [Compound 413, 1-(((2′-((4-aminocyclohexyl)amino)-5′-chloro-[2,4′-bipyridin]-6-yl)amino)methyl)cyclopropane-carbonitrile]	< 0.5
CS(=O)(=O)NC[C@H]1CC[C@H](Nc2cc(-c3cccc(NCC4(C#N)CCOCC4)n3)c(Cl)cn2)CC1 [Compound 494, N-((trans-4-((5′-chloro-6-(((4-cyanotetrahydro-2H-pyran-4-yl)methyl)amino)-[2,4′-bipyridin]-2′-yl)amino)cyclohexyl)methyl) methanesulfonamide]	< 0.5
N#CC1(CNc2cccc(-c3cc(N[C@H]4CC[C@H](N5CCCOCC5)CC4)ncc3Cl)n2)CCOCC1 [Compound 428, 4-(((2′-((trans-4-(1,4-oxazepan-4-yl)cyclohexyl)amino)-5′-chloro-[2,4′-bipyridin]-6-yl)amino)methyl)tetrahydro-2H-pyran-4-carbonitrile]	0.6
CC(C)(C)OCCN[C@H]1CC[C@H](Nc2cc(-c3cccc(NCC4(C#N)CCOCC4)n3)c(Cl)cn2)CC1 [Compound 432, 4-(((2′-((trans-4-((2-(tert-butoxy)ethyl)amino)cyclohexyl)amino)-5′-chloro-[2,4′-bipyridin]-6-yl)amino)methyl)tetrahydro-2H-pyran-4-carbonitrile]	< 0.5
C[C@H]1COCCN1[C@H]1CC[C@H](Nc2cc(-c3cccc(NCC4(C#N)CCOCC4)n3)c(Cl)cn2)CC1 [Compound 502, 4-((5′-chloro-2′-(trans-4-((S)-3-methylmorpholino)cyclohexyl-amino)-2,4′-bipyridin-6-ylamino)methyl)tetrahydro-2H-pyran-4-carbonitrile]	2.9
COCCN[C@H]1CC[C@H](Nc2cc(-c3ccc(F)c(NCC4(C)CCOCC4)n3)c(Cl)cn2)CC1 [Compound 481, 5′-chloro-5-fluoro-N2′-(trans-4-((2-methoxyethyl)amino)cyclohexyl)-N6-((4-methyltetrahydro-2H-pyran-4-yl)methyl)-[2,4′-bipyridine]-2′,6-diamine]	< 0.5
N#CC1(CNc2cccc(-c3cc(N[C@H]4CC[C@H](CNc5nc6ccccc6o5)CC4)ncc3Cl)n2)CCOCC1 [Compound 504, 4-(((2′-((trans-4-((benzo[d]oxazol-2-ylamino)methyl)cyclohexyl)amino)-5′-chloro-[2,4′-bipyridin]-6-yl)amino)methyl)tetrahydro-2H-pyran-4-carbonitrile]	1
N#CC1(CNc2cccc(-c3cc(N[C@H]4CC[C@H](N5CCCC5)CC4)ncc3Cl)n2)CCOCC1 [Compound 434, 4-(((5′-chloro-2′-((trans-4-(pyrrolidin-1-yl)cydohexyl)amino)-[2,4′-bipyridin]-6-yl)amino)methyl)tetrahydro-2H-pyran-4-carbonitrile]	≤ 0.5
COC[C@@H](C)N[C@H]1CC[C@H](Nc2cc(-c3cncc(NCC4(C#N)CCOCC4)n3)c(Cl)cn2)CC1 [Compound 507, 4-(((6-(5-chloro-2-((trans-4-(((R)-1-methoxypropan-2-yl)amino)cyclohexyl)amino)pyridin-4-yl)pyrazin-2-yl)amino)methyl)tetrahydro-2H-pyran-4-carbonitrile]	< 0.5
N[C@H]1CC[C@H](Nc2cc(-c3cccc(NCC4(O)CCOCC4)n3)c(Cl)cn2)CC1 [Compound 450, 4-(((2′-((trans-4-aminocyclohexyl)amino)-5′-chloro-[2,4′-bipyridin]-6-yl)amino)methyl)tetrahydro-2H-pyran-4-ol]	1.5
COCC(=O)NC[C@H]1CC[C@H](Nc2cc(-c3cccc(NCC4(C#N)CCOCC4)n3)c(Cl)cn2)CC1 [Compound 498, N-((trans-4-((5′-chloro-6-(((4-cyanotetrahydro-2H-pyran-4-yl)methyl)amino)-[2,4′-bipyridin]-2′-yl)amino)cyclohexyl)methyl)-2-methoxyacetamide]	< 0.5
N#CC1(CNc2cccc(-c3cc(N[C@H]4CC[C@H](CNc5cc(Cl)ncn5)CC4)ncc3Cl)n2)CCOCC1 [Compound 505, 4-(((5′-chloro-2′-((trans-4-(((6-chloropyrimidin-4-yl)amino)methyl)cyclohexyl)amino)-[2,4′-bipyridin]-6-yl)amino)methyl)tetrahydro-2H-pyran-4-carbonitrile]	≤ 0.5
CN(C)C(=O)CN[C@H]1CC[C@H](Nc2cc(-c3cccc(NCC4(C#N)CCOCC4)n3)c(Cl)cn2)CC1 [Compound 423, 2-((trans-4-((5′-chloro-6-(((4-cyanotetrahydro-2H-pyran-4-yl)methyl)amino)-[2,4′-bipyridin]-2′-yl)amino)cyclohexyl)amino)-N,N-dimethylacetamide]	< 0.5
